Experimental data taken from ChEMBL document CHEMBL4270492, “Free radicals and polyphenols: The redox chemistry of neurodegenerative diseases” (Eur J Med Chem, 2017).

Legend:
[1] = Electrochemical behaviour of the compound assessed as peak potential; assay type: physicochemical
[2] = Antioxidant activity assessed as DPPH free radical scavenging activity; assay type: functional
[3] = Antioxidant activity assessed as superoxide anion free radical scavenging activity by measuring rate constant using UV irradiation by ESR spin trapping method; assay type: functional
[4] = Antioxidant activity assessed as hydroxyl radical scavenging activity by measuring rate constant using UV irradiation by ESR spin trapping method; assay type: functional
[5] = Antioxidant activity assessed as singlet oxygen scavenging activity by measuring rate constant using VIS irradiation by ESR spin trapping method; assay type: functional
[6] = Antioxidant activity assessed as alkoxyl radical scavenging activity by measuring rate constant by ESR spin trapping method; assay type: functional
[7] = Electrochemical behaviour of the compound assessed as peak potential using disposable screen-printed carbon electrodes; assay type: physicochemical
[8] = Antioxidant activity assessed as effect on linolenic acid autooxidation in presence of 0.5 M SDS based micellar systems; assay type: functional
[9] = Antioxidant activity assessed as effect on linolenic acid autooxidation in presence of 0.015 M SDS based micellar systems; assay type: functional
[10] = Antioxidant activity assessed as effect on linolenic acid autooxidation in presence of DLPC liposomes; assay type: functional
[11] = Metal chelating activity assessed as equilibrium constant for formation of compound-Fe2+ complex formation
[12] = Metal chelating activity assessed as equilibrium constant for formation of compound-Cu2+ complex formation
[13] = Metal chelating activity assessed as equilibrium constant for formation of compound-Al3+ complex formation

Row | Structure (SMILES) | EC50 [2] [µmol] | K [3] [×10³ /M/s] | K [4] [×10⁹ /M/s] | K [5] [×10⁷ /M/s] | K [6] [×10⁵ /M/s] | Ep [7] [mV] | other results
1 | COc1cc(/C=C/C(=O)O)cc(OC)c1O [SINAPINATE] | 0.0724 |  |  |  |  |  | Ep [1]: 188 to 295 mV
2 | O=c1c(-c2ccc(O)cc2)coc2cc(O)cc(O)c12 |  | 2.75 | 11.8 | 19.1 | 20.7 |  | 
3 | N[C@@H](CCC(=O)N[C@@H](CS)C(=O)NCC(=O)O)C(=O)O |  | 1.11 | 16.4 | 93.9 | 27.6 |  | 
4 | O=C(O)/C=C/c1ccc(O)c(O)c1 [CAFFEIC ACID] | 0.0478 | 10.6 | 8.06 | 54.7 | 75.9 | 450 | Ep [1]: 183 mV
5 | C[C@@H]1O[C@@H](OC[C@H]2O[C@@H](Oc3c(-c4ccc(O)c(O)c4)oc4cc(O)cc(O)c4c3=O)[C@H](O)[C@@H](O)[C@@H]2O)[C@H](O)[C@H](O)[C@H]1O |  | 15.4 | 6.38 | 34.8 | 69 |  | 
6 | O=C(O)/C=C/c1ccc(O)cc1 [COUMARIC ACID] | 66.29 |  |  |  |  | 670 | Ep [1]: 736 mV
7 | Cc1c(C)c2c(c(C)c1O)CCC(C)(C(=O)O)O2 (centres undefined) |  | 2.1 | 24.8 | 6.22 | 48.3 |  | K [8]: 110000 M⁻¹ s⁻¹; K [9]: 1 ×10⁴ /M/s; K [10]: 0.58 ×10⁴ /M/s
8 | Oc1nc(O)c2nc(O)[nH]c2n1 |  | 10.6 | 9.52 | 2.3 | 106 |  | 
9 | O=C(O)c1cc(O)c(O)c(O)c1 [GALLIC ACID] | 0.0237 |  |  |  |  |  | Ep [1]: 110 to 544 mV
10 | O=C(O)c1ccccc1O [SALICYLIC ACID] | > 800 |  |  |  |  | 940 | 
11 | O=C(O)c1cc(O)ccc1O [GENTISIC ACID] | 0.0292 |  |  |  |  |  | 
12 | COc1cc(/C=C/C(=O)O)ccc1O [FERULATE] | 0.0927 |  |  |  |  | 447 | Ep [1]: 335 mV
13 | COc1cc(C(=O)O)ccc1O [VANILLIC ACID] | 14.37 |  |  |  |  | 730 | 
14 | O=C(/C=C/c1ccc(O)c(O)c1)O[C@@H]1C[C@](O)(C(=O)O)C[C@@H](O)[C@H]1O |  | 288 | 9.6 | 38.6 | 111 |  | 
15 | O=C(O)/C=C/c1ccccc1O [O-COUMARIC ACID] | 130.05 |  |  |  |  | 750 | 
16 | COc1cc(C(=O)O)cc(OC)c1O [SYRINGIC ACID] | 0.0427 |  |  |  |  | 490 | 
17 | COc1cc(C(C)(C)C)c(O)c(C(C)(C)C)c1 |  |  |  |  |  |  | K [8]: 1 ×10⁴ /M/s; K [9]: 2.5 ×10⁴ /M/s; K [10]: 2.75 ×10⁴ /M/s
18 | Cc1cc(C(C)(C)C)c(O)c(C(C)(C)C)c1 |  |  |  |  |  |  | K [8]: 1.1 ×10⁴ /M/s; K [9]: 3.4 ×10⁴ /M/s; K [10]: 0.37 ×10⁴ /M/s
19 | O=C(O)c1ccc(O)c(O)c1 [PROTOCATECHUIC ACID] | 0.0574 |  |  |  |  | 410 | Ep [1]: 188 to 317 mV
20 | O=C(O)c1ccc(O)cc1 [PARABEN] | > 800 |  |  |  |  | 870 | 
21 | O=C(O)/C=C/c1cccc(O)c1 | > 300 |  |  |  |  | 780 | 
22 | O=C(O)/C=C/c1cc(O)c(O)c(O)c1 |  |  |  |  |  |  | Ep [1]: 384 mV
23 | CC(=O)N[C@@H](CS)C(=O)O |  | 0.5 | 13.6 | 20.5 | 19.3 |  | 
24 | O=C(O)CC(O)(CC(=O)O)C(=O)O |  |  |  |  |  |  | K [11]: 1600 M⁻¹; K [12]: 1000 to 100000 M⁻¹; K [13]: 1000 to 100000 M⁻¹
